Assay results as given in patent publication US10668048B2, “Compounds for inhibiting bacterial growth via phosphatidylglycerol binding” (Wichita State University, priority 2016, dated 2020).

What was measured:
[1] = Liptin-PG binding in solution (ITC and/or 1H NMR titration); settings: ITC; 50% DMSO, 45% CHCl3, 5% CH3OH
Protocol: The lipid binding ability of liptins 1-3 (FIG. 2A) have been investigated in solution using isothermal titration calorimetry (ITC) and/or ^1H NMR. Stoichiometry of binding was accomplished with Job plots using ^1H NMR. […] The use of organic solvents allowed the determination of binding motif using ^1H NMR.
Liptins 1b, 1e, 2c, 2d, 3a, 3c in DMF/5% CHCl3; 3e in 50% DMSO, 45% CHCl3, 5% CH3OH.
Liptins 1h and 1i 40% DMSO, 60% CHCl3, 3f in 20% DMSO, 80% CHCl3.

[2] = Carboxy-fluorescein efflux from PE/PG liposomes; assay type: biochemical; settings: 2.5 μM, after 90 minutes
Protocol: Liptin 3e causes membrane leakage when it binds to PG in a membrane, as evidenced by the efflux of fluorescent carboxy-fluorescein from model lipid vesicles of 80% PE/20% PG (the approximate lipid content models E. coli's plasma membrane), shown in FIG. 19A. […] Not shown is the effect of the bee AMP melittin, which forms pores in membranes at 2.5 μM concentrations. Upon addition of melittin within a few minutes of addition the efflux is 100%.
Liptins 3f-h also cause membrane leakage when they bind to PG in a membrane, as evidenced by the efflux of fluorescent carboxy-fluorescein from model lipid vesicles of 80% PE/20% PG (the lipid content models E. coli's plasma membrane), shown in FIG. 19B. The circle bottom line data set is the control without liptin. […] Y-axis: % Efflux; X-axis: Time in minutes.
This greater efflux activity may well translate to lower MICs of these two compounds relative to liptin 3e, and may well change the liptin activity from bacteriostatic to bactericidal. […]

[3] = system: E. Coli (JMR 223-MC4100); assay: MIC in LB culture; assay type: cell-based; settings: overnight 37° C.
Protocol: An E. Coli (JMR 223-MC4100) plate was grown up overnight in LB agar at 37° C. A good colony was selected and added to 5 mL LB growth media. This was incubated at 37° C. with shaking at 250 rpm until the solution reaches an OD of at least 0.5 or higher at 600 nm. A final solution was diluted 500× to an OD of 0.001, correlating to a CFU of 1×10^6. 5 ml solutions of the diluted bacterial broth were measured out. Liptins were added to make solutions of 20 μM, 15 μM, 10 μM, 5 μM, 4 μM, 3 μM, 2 μM, and 1 μM (This means adding 0.2 mL, 0.15 mL, 0.1 mL, 0.05 mL, 0.04 mL, 0.03 mL, 0.02 mL, 0.01 mL of the 500 μM solution). Cultures were allowed to incubate overnight at 37° C. with shaking at 250 rpm. The following day, cultures were analyzed to evaluate the presence or absence of bacterial growth by spectrophotometry at 600 nm (0.66 mg of liptin in 0.95 mL of water; 0.15 OD Diluted 150× to OD of 0.001). […] Growth was not observed in the 2 μM and up solutions. See FIGS. 11A-11B for a visual image of the E. coli cultures.

[4] = system: Enterococcus faecalis 29213; assay: MIC in LB culture; assay type: cell-based
Protocol: Strep fuecalis (aka Enterococcus faecalis 29213) cultures were prepared the same way as S. aureus, and analyzed as above. […] The OD600 of the control was 0.72. […] See photos for visual representation. See FIG. 11D for a visual image of the S. fuecalis cultures.

[5] = system: E. coli, Staphylococcus aureus, Enterococcus faecalis; assay: MIC of liptin 3e, overall statement; assay type: cell-based; settings: LB culture
[6] = system: E. coli (MC4100); assay: Bactericidal (MBC) experiment, LB plates; assay type: cell-based; settings: overnight culture then LB plate 16 hours
Protocol: (§1) Cultures (5 mL) starting at 0.001 OD were grown overnight at 37° C. with different concentrations of […], and then a sample of culture was added to an LB plate and then it was incubated for 16 hours at 37° C. […] All experiments were done in triplicate, including control.

[7] = system: E. feucalis (29213); assay: Bactericidal (MBC) experiment, LB plates; assay type: cell-based; settings: overnight culture then LB plate 16 hours
Protocol: as §1

[8] = system: S. aureus (33186); assay: Bactericidal (MBC) experiment, LB plates; assay type: cell-based; settings: 5 μM, overnight culture then LB plate 16 hours
Protocol: as §1

[9] = system: E. coli strain MC4100; assay: IPTG-induced PapD overexpression, gel electrophoresis; assay type: cell-based; settings: IPTG and 5 μM
Source text: The E. coli strain MC4100 will produce the pili chaperone PapD, a periplasmic protein, when induced by IPTG. […] The left panel represents the periplasmic fraction with lanes running left to right: ladder, NR, C, R, all with no IPTG; NR+IPTG, C+IPTG, R+IPTG (negative control was porphyrin A) or in the cytosol represented in the right panel with lanes running from left to right: NR, C, R, all with no IPTG; ladder, NR+IPTG, C+IPTG, R+IPTG (negative control was porphyrin A). (NR=no liptin, C=control, R=liptin). IPTG gets into the cytoplasm most efficiently via uphil symport via the plasma membrane protein lac permease when the plasma membrane is fully polarized.

[10] = system: Gram-positive, Gram-negative, and Mycobacteria; assay: Growth curves in BHI culture with liptin 3e; assay type: cell-based
Source text: Growth curves were generated from liquid shake-flask cultures using absorbance measurements at 600 nm at different concentrations of liptin 3e. Uninoculated control flasks were used as blanks. Absorbance values of 0.1 OD unit was considered reasonable threshold for positive growth. […] Liptin exposure appears to stop bacterial growth, as evidenced by long lag phases, which increase with liptin concentration. In most cases, cultures recover, but growth rates and maximum cell densities are decreased with liptin treatment.
Bacterial growth rates were reduced by liptin 3e treatment in a concentration-dependent manner. Rates were determined as the slope of the log phase of the growth curve, after the lag phase. An exponential relationship exists with marginally significant differences (p<0.1).
Maximum culture densities represent the carrying capacity of a culture flask.

[11] = E. coli and S. aureus, concentration-dependent

In the case of NCC(=O)Nc1ccccc1-c1c2nc(c(-c3ccccc3NC(=O)CN)c3ccc([nH]3)c(-c3ccccc3NC(=O)CN)c3nc(c(-c4ccccc4NC(=O)CN)c4ccc1[nH]4)C=C3)C=C2.O=C(O)C(F)(F)F.O=C(O)C(F)(F)F.O=C(O)C(F)(F)F.O=C(O)C(F)(F)F [Liptin 3e], the Ka [1] is reported as 2800 M⁻¹, the “dye leakage (efflux)” value [2] is reported as 5-10% and the MIC [3] is reported as 1 to 2 µM. For the same molecule, the “effect on bacterial growth” value [4] was “inhibits bacterial growth”, the MIC [5] was “less than 2 μM” and the “MBC (concentration with low or no growth on LB plates)” value [6] was “much more than four times the MIC concentrations”. For the same molecule, the “MBC (concentration with low or no growth on LB plates)” value [7] was “much more than four times the MIC concentrations”, the bactericidal effect [8] was “strong bactericidal effects” and the “PapD in periplasmic space or cytosol” value [9] was “no PapD was found”. The bacterial growth rates [10, 11] was “reduces bacterial growth rates”, the maximum culture density [10, 11] was “decreases maximum culture density” and the “antibacterial activity from growth curves” value ([10]; one inoculation, BHI) was “highly bacteriostatic activity”.
